Values of other authors in patent US20110230564A1, “ANT4 INHIBITOR COMPOUNDS AND METHODS OF USE THEREOF” (priority 2008, published 2011).

Test system: sperm
Conditions: 50 μM

CO[C@H](C/C=C\C=C\CC/C=C/C[C@H](C)/C=C/C(=C\C(=O)O)CC(=O)O)/C(C)=C\C=C(/C)C(=O)O [Bongkrekic acid]
sperm motility: almost completely immotile
